Among the data in ChEMBL document CHEMBL1159368, “Phenolic compounds from Nymphaea odorata” (J Nat Prod, 2003) are IC50 values, retold here.

In brackets after ≈: the same amount, converted by molar mass.

A short description of this assay: Inhibition of Saccharomyces cerevisiae FAS.
As for `O=c1c(O[C@@H]2O[C@H](CO)[C@H](O)[C@H](O)[C@H]2O)c(-c2cc(O)c(O)c(O)c2)oc2cc(O)cc(O)c12`, the IC50 came to 25 µg/mL (≈ 52 µM).

For the compound `C[C@@H]1O[C@@H](Oc2c(-c3ccc(O)cc3)oc3cc(O)cc(O)c3c2=O)[C@H](O)[C@H](O)[C@H]1O` [AFZELIN], the IC50 was 45 µg/mL (≈ 104 µM).

`C/C=C/C/C=C/CCC(=O)[C@H]1O[C@H]1C(N)=O` [CERULENIN] showed an IC50 of 0.19 µg/mL (≈ 0.851 µM).

As to `C[C@@H]1O[C@@H](Oc2c(-c3ccc(O)c(O)c3)oc3cc(O)cc(O)c3c2=O)[C@H](O)[C@H](O)[C@H]1O` [QUERCITRIN], the IC50 is 50 µg/mL (≈ 112 µM).

For orientation: IC50 means the concentration that inhibits the measured activity by half. Read a high IC50 as weaker potency.
